Results from ChEMBL document CHEMBL1921689, “Synthesis and biological profile of new 1,2,3,4-tetrahydroisoquinolines as selective carbonic anhydrase inhibitors” (Bioorg Med Chem, 2011).

What follows are compounds tested against Carbonic anhydrase 9 (Homo sapiens, UniProt Q16790) (assay: Inhibition of human CA9 catalytic domain preincubated for 15 mins by stopped flow CO2 hydration assay).

SMILES	Ki
COc1ccc2c(c1)CCN(S(N)(=O)=O)C2c1ccc(F)cc1 (racemic)	31 nM
COc1ccc2c(c1)CCN(S(N)(=O)=O)C2c1ccc(Br)cc1 (racemic)	60.7 nM
COc1ccc2c(c1)CCN(S(N)(=O)=O)C2c1cccc([N+](=O)[O-])c1 (racemic)	16 nM
COc1ccc2c(c1)CCN(S(N)(=O)=O)C2c1ccc(C)cc1 (racemic)	7.5 nM
COc1ccc2c(c1)CCN(S(N)(=O)=O)C2c1ccc([N+](=O)[O-])cc1 (racemic)	5 nM

Now from value to compound:

Ki	SMILES
18 nM	COc1ccc2c(c1)CCN(S(N)(=O)=O)C2c1cccc(N)c1 (racemic)
78 nM	COc1ccc2c(c1)CCN(S(N)(=O)=O)C2c1ccccc1 (racemic)
7 nM	COc1ccc2c(c1)CCN(S(N)(=O)=O)C2c1ccc(C#N)cc1 (racemic)
12 nM	COc1ccc2c(c1)CCN(S(N)(=O)=O)C2c1ccc(N)cc1 (racemic)
